These results are taken from ChEMBL document CHEMBL5331134, “Identification of Brain-Penetrant ATP-Competitive mTOR Inhibitors for CNS Syndromes” (J Med Chem, 2023).

A short description of data set [1]: In vivo inhibition of phosphorylation of S6 at serine 240/244 residues in C57BL/6 mouse brain at 3 to 10 mg/kg, po measured after 8 hrs by Western blotting analysis. The format is organism-based. The note with it: dose 3-10 mg/kg.
Data set [2] is described as follows: In vivo inhibition of phosphorylation of S6 at serine 240/244 residues in C57BL/6 mouse brain at 30 mg/kg, po measured after 24 hrs by Western blotting analysis. The format is organism-based. For orientation: A western blot detects proteins with antibodies after separation by electrophoresis.
Data set [3] can be described thus: Drug concentration in C57BL/6 mouse brain at 1 mg/kg, po measured after 1 hr. The format is ADME, organism-based. The settings on record: read-out: Ct.
The nature of data set [4]: Ratio of drug concentration in brain to plasma in C57BL/6 mouse at 1 mg/kg, po measured at 1 hr. In kind it is ADME, organism-based. The settings on record: read-out: BPR.
Data set [5] is described as follows: Drug concentration in C57BL/6 mouse brain at 3 mg/kg, po measured after 1 hr. In kind it is ADME, organism-based. The settings on record: read-out: Ct.
Data set [6] in a line: Drug concentration in C57BL/6 mouse plasma at 3 mg/kg, po measured after 1 hr. The format is ADME, organism-based.
Data set [7] in a line: Ratio of drug concentration in brain to plasma in C57BL/6 mouse at 3 mg/kg, po measured at 1 hr. The format is ADME, organism-based. The note with it: read-out: BPR.
Data set [8] is described as follows: Drug concentration in C57BL/6 mouse brain at 1 mg/kg, po measured after 3 hrs. The settings on record: read-out: Ct. The format is ADME, organism-based.
Data set [9] is described as follows: Ratio of drug concentration in brain to plasma in C57BL/6 mouse at 1 mg/kg, po measured at 3 hrs. In kind it is ADME, organism-based. The settings on record: read-out: BPR.
Data set [10] in a line: Drug concentration in C57BL/6 mouse brain at 3 mg/kg, po measured after 3 hrs. The note with it: read-out: Ct. In kind it is ADME, organism-based.
Data set [11] in a line: Drug concentration in C57BL/6 mouse plasma at 3 mg/kg, po measured after 3 hrs. The format is ADME, organism-based.
Data set [12] is described as follows: Ratio of drug concentration in brain to plasma in C57BL/6 mouse at 3 mg/kg, po measured at 3 hrs. The format is ADME, organism-based. The note with it: read-out: BPR.
Data set [13] is described as follows: Drug concentration in C57BL/6 mouse brain at 1 mg/kg, po measured after 8 hrs. The format is ADME, organism-based. The settings on record: read-out: Ct.
Data set [14] is described as follows: Ratio of drug concentration in brain to plasma in C57BL/6 mouse at 1 mg/kg, po measured at 8 hrs. In kind it is ADME, organism-based. The settings on record: read-out: BPR.
Data set [15] is described as follows: Drug concentration in C57BL/6 mouse brain at 3 mg/kg, po measured after 8 hrs. The format is ADME, organism-based. The note with it: read-out: Ct.
Data set [16] in a line: Drug concentration in C57BL/6 mouse plasma at 3 mg/kg, po measured after 8 hrs. The format is ADME, organism-based.
Data set [17] in a line: Drug concentration in C57BL/6 mouse plasma at 10 mg/kg, po measured after 8 hrs. In kind it is ADME, organism-based.
The nature of data set [18]: Ratio of drug concentration in brain to plasma in C57BL/6 mouse at 10 mg/kg, po measured at 8 hrs. The format is ADME, organism-based. The note with it: read-out: BPR.
Data set [19] can be described thus: Drug concentration in C57BL/6 mouse brain at 30 mg/kg, po measured after 8 hrs. In kind it is ADME, organism-based. The settings on record: read-out: Ct.
Data set [20] in a line: Drug concentration in C57BL/6 mouse plasma at 30 mg/kg, po measured after 8 hrs. The format is ADME, organism-based.
Data set [21] can be described thus: Drug concentration in C57BL/6 mouse brain at 1 mg/kg, po measured after 24 hrs. The format is ADME, organism-based. The note with it: read-out: Ct.
Data set [22] can be described thus: Drug concentration in C57BL/6 mouse plasma at 1 mg/kg, po measured after 24 hrs. In kind it is ADME, organism-based.
Data set [23] can be described thus: Ratio of drug concentration in brain to plasma in C57BL/6 mouse at 1 mg/kg, po measured after 24 hrs. The settings on record: read-out: BPR. In kind it is ADME, organism-based.
Data set [24] in a line: Drug concentration in C57BL/6 mouse plasma at 3 mg/kg, po measured after 24 hrs. In kind it is ADME, organism-based.
Data set [25] can be described thus: Ratio of drug concentration in brain to plasma in C57BL/6 mouse at 3 mg/kg, po measured after 24 hrs. In kind it is ADME, organism-based. The settings on record: read-out: BPR.
Data set [26] in a line: AUC(0 to t) in cynomolgus monkey at 0.1 mg/kg, iv measured upto 24 hrs by LC/MS/MS analysis. The note with it: in vivo. Details: dose 0.1 mg/kg, time < 24 hrs, route iv; call rule not given here. In kind it is ADME, organism-based, Macaca fascicularis.
Data set [27] can be described thus: Cmax in cynomolgus monkey at 1 mg/kg, po measured upto 24 hrs by LC/MS/MS analysis. In kind it is ADME, organism-based, Macaca fascicularis. Also noted: time < 24 hrs, dose 1 mg/kg, route po. The settings on record: in vivo.
Data set [28] can be described thus: AUC(0 to t) in cynomolgus monkey at 1 mg/kg, po measured upto 24 hrs by LC/MS/MS analysis. In kind it is ADME, organism-based, Macaca fascicularis. Details: time < 24 hrs, dose 1 mg/kg, route po. The settings on record: in vivo.
Data set [29] can be described thus: Bioavailability in cynomolgus monkey at 1 mg/kg, po and 0.1 mg/kg, iv measured upto 24 hrs by LC/MS/MS analysis. The settings on record: in vivo. In kind it is ADME, organism-based, Macaca fascicularis.
Data set [30] is described as follows: Volume of distribution at steady state in cynomolgus monkey at 1 mg/kg, po and 0.1 mg/kg, iv measured upto 24 hrs by LC/MS/MS analysis. The format is ADME, organism-based, Macaca fascicularis. The settings on record: in vivo.
Data set [31] is described as follows: Half life in cynomolgus monkey at 1 mg/kg, po and 0.1 mg/kg, iv measured upto 24 hrs by LC/MS/MS analysis. The format is ADME, organism-based, Macaca fascicularis. The note with it: in vivo.
Data set [32] can be described thus: MRT(0 to t) in cynomolgus monkey at 1 mg/kg, po and 0.1 mg/kg, iv measured upto 24 hrs by LC/MS/MS analysis. In kind it is ADME, organism-based, Macaca fascicularis. The settings on record: in vivo.
The nature of data set [33]: Phototoxicity against mouse BALB/3T3 clone A31 cells assessed as photo-irradiation factor incubated for 1 hr followed by irradiated with 5 J/cm^2 of light dose measured after 24 hrs by neutral red uptake assay. The note with it: balb/3t3 clone a31, 1 h. In kind it is toxicity, cell-based.
A short description of data set [34]: Clearance in C57BL/6 mouse at 1 mg/kg, iv and 3 mg/kg, ip measured upto 24 hrs by HPLC-MS analysis. The format is ADME, organism-based. The settings on record: in vivo.
A short description of data set [35]: In vivo inhibition of phosphorylation of S6 at serine 240/244 residues in C57BL/6 mouse brain at 10 to 30 mg/kg, po measured after 1 to 3 hrs by Western blotting analysis. The format is organism-based. The note with it: dose lower 10 mg/kg, time lower 1 hrs, dose upper 30 mg/kg, time upper 3 hrs.
A short description of data set [36]: In vivo inhibition of phosphorylation of AKT at serine 473 residues in C57BL/6 mouse brain at 10 to 30 mg/kg, po measured after 24 hrs by Western blotting analysis. In kind it is organism-based. The note with it: dose 10-30 mg/kg.
A short description of data set [37]: AUC(0 to t) in Beagle dog at 1 mg/kg, po measured upto 24 hrs by LC/MS/MS analysis. In kind it is ADME, organism-based, Canis lupus familiaris. Details: time < 24 hrs, dose 1 mg/kg, route po. The settings on record: in vivo.
Data set [38] can be described thus: Tmax in Beagle dog at 1 mg/kg, po and 0.3 mg/kg, iv measured upto 24 hrs by LC/MS/MS analysis. The format is ADME, organism-based, Canis lupus familiaris. The settings on record: in vivo.
Data set [39] is described as follows: Bioavailability in Beagle dog at 1 mg/kg, po and 0.3 mg/kg, iv measured upto 24 hrs by LC/MS/MS analysis. The format is ADME, organism-based, Canis lupus familiaris. The note with it: in vivo.
The nature of data set [40]: Volume of distribution at steady state in Beagle dog at 1 mg/kg, po and 0.3 mg/kg, iv measured upto 24 hrs by LC/MS/MS analysis. The format is ADME, organism-based, Canis lupus familiaris. The note with it: in vivo.
Data set [41] can be described thus: Half life in Beagle dog at 1 mg/kg, po and 0.3 mg/kg, iv measured upto 24 hrs by LC/MS/MS analysis. The note with it: in vivo. In kind it is ADME, organism-based, Canis lupus familiaris.
The nature of data set [42]: MRT(0 to t) in Beagle dog at 1 mg/kg, po and 0.3 mg/kg, iv measured upto 24 hrs by LC/MS/MS analysis. In kind it is ADME, organism-based, Canis lupus familiaris. The settings on record: in vivo.
Data set [43] can be described thus: AUC(0 to t) in cynomolgus monkey at 0.3 mg/kg, po measured upto 24 hrs by LC/MS/MS analysis. The settings on record: in vivo. Details: dose 0.3 mg/kg, time < 24 hrs, route po. In kind it is ADME, organism-based, Macaca fascicularis.
Data set [44] is described as follows: Cmax in cynomolgus monkey at 0.3 mg/kg, po measured upto 24 hrs by LC/MS/MS analysis. In kind it is ADME, organism-based, Macaca fascicularis. Also noted: dose 0.3 mg/kg, time < 24 hrs, route po. The note with it: in vivo.

What is called AUC(0-t) is the area under the concentration-time curve up to a stated or last time point. The Cmax is the peak of the concentration-time curve. Usually half-life stands for how long it takes for the measured level to halve. For orientation: MRT last means a mean duration of stay, worked out from the concentration-time curve. As a reminder, the Tmax is the time at which the peak concentration occurs.

In the case of `C[C@@H]1COCCN1c1cc(N2CCOC[C@@H]2C)nc2[nH]c(-c3cscn3)nc12`, the “inhibition (INH)” value in data set [1] and in [2] was “Active” throughout. The concentration at 1 h in [3] came to 388 nM; in [5] it was 1400 nM; in data set [6] it was 2750 nM. In addition, the Kp at 1 h in data set [4] and in data set [7] was 0.51 in each case. The concentration at 3 h in data set [8] is 240 nM; in data set [10] it was 930 nM; in [11], 2050 nM. Moreover, the Kp at 3 h in [9] was 0.36; in [12] it was 0.45. Also, the concentration at 8 h came out at 90 nM in data set [13]; 341 nM in data set [15]; 1190 nM in [16]; 406 nM in data set [17]; 462 nM in data set [19]; 632 nM in [20]. Moreover, the figures for the Kp at 8 h in data set [14] and in [18] were 0.37 and 0.57, respectively. The concentration at 24 h in data set [21] was determined as 7 nM; in [22] it was 4 nM; in data set [24], 6 nM. Moreover, the Kp at 24 h turned out to be 1.91 in data set [23] and 0.84 in [25]. Further, the AUC(0-t) at 24 h amounted to 0.34 µM·h in [26] and 3.75 µM·h in [28]. Moreover, the Cmax in [27] was found to be 468 nM. Further, the bioavailability in data set [29] was 110%. This compound displayed a Vdss in [30] of 3 L/kg. In [31], this compound showed a half-life of 5 h. The same compound registered a mean residence time MRT last at 24 h in [32] of 4.2 h.
In the case of `C[C@@H]1COCCN1c1cc(N2CCOC[C@@H]2C)nc2[nH]c(-c3ccccn3)nc12`, the Activity in data set [33] was determined as 1. Besides, in data set [34], the clearance was determined as 19 mL/min/kg. The “inhibition (INH)” value in [35] is given as “Active”; in [36], “Not Active”. Further, the results for the area under the curve AUC(0-t) at 24 h in data set [37] and in data set [43] were 0.056 µM·h and 0.125 µM·h, respectively. In [38], the Tmax came to 0.8 h. Moreover, the bioavailability in data set [39] was determined as 11%. Moreover, the Vdss in data set [40] is 4.3 L/kg. The compound also showed a half-life in data set [41] of 1.9 h. The compound further had an MRT last at 24 h in [42] of 0.9 h. This compound also displayed a Cmax in data set [44] of 13 nM.
